Assays:
[1] = test system: Prim'holstein lactating cows; test: Cabergoline effect by intramammary (IMM) route on milk production, milking continuation context (Example 1); format: in vivo; details: IMM 1.34 mg/quarter in all 4 quarters (5.4 mg/cow, ~7.5 μg/kg) after evening milking D4; n=5; printed as minus 6 L
Description: The cabergoline composition is a solution comprising cabergoline with dimethyl sulfoxide and medium-chain triglycerides, as excipients.
5 Prim'holstein lactating cows were included in the study, with the following characteristics: • Multiparous: parity 2 to 4 • Daily milk yield (L): 17.4+/−2.8 • Days in milk (d): 251+/−51 • Body weight (kg): 686+/−29
Cabergoline was administered as an oily solution as described above, with an intramammary cannula inserted into the teat canal and fitted to the tip of a syringe containing the solution. A volume of 10 mL was directly deposited into the udder cistern of each quarter.
Cows were milked twice a day, morning and evening, at around 07 am and 05 pm respectively.
Milk production (morning milking) was measured during the days before (baseline) and after treatment.
The 5 cows were treated with a dose 1.34 mg/quarter in all 4 quarters (total dose 5.4 mg/cow, corresponding to ˜7.5 μg/kg when expressed according to kg body weight, after evening milking (D4), i.e. 15-20 minutes after the end of milking.

dairy cow [2] = test: Inter-teat perimeter (ITP, udder engorgement) at dry-off, IMM study (Example 2); format: in vivo
Description: 10 lactating cows (9 Prim'holstein and 1 Brown Swiss) were included in this study. […] Animal had free access to water and hay throughout the study. Each cow was given 7 kg/day of an antibiotic free concentrate feed for lactating cow until D0 dry off. After dry-off each cow was given 7 kg/day of an antibiotic free concentrate for growing cattle. The composition of concentrate is given hereafter: At D0 dry-off, an abrupt milking cessation was performed. The inter-teat perimeter (ITP) was considered as a proxy of udder volume and engorgement, and was measured before treatment udder, both before and after milking, and then evenly after treatment until 9 days post-treatment.

[3] = Blood calcium concentration after IM cabergoline 5.6 mg/cow (previous studies); format: in vivo; details: versus negative control group
Description: Said studies were conducted in comparison versus a negative control group, and blood calcium decrease was monitored and well identified: A calcium decrease was observed as soon as 2 to 3 hours post-treatment, maximal between 6 and 12 hours and return to normal after 24 hours.
It is important to note that, in the study of example 2, the benefit regarding a less decrease of blood calcium concentration was obtained, despite a less quantity of calcium supplied by food, when compared to the IM studies 1 and 2. In these last 2 IM studies, 150 g of calcium/day/cow was provided through a total or partial mixed ration, whereas in the IMM study of example 2 only 50 g of calcium was provided via the concentrate (7 kg/day/cow at 0.7% of Ca) and a remaining part via the hay given ad libidum. Although the exact quantity of Ca provided by the hay was unknown, it was surely less than in the 2 IM studies, because, • i) the content of calcium in the hay is generally lower than concentrates, usually around 0.3% • ii) the actual hay dry matter intake could be estimated around 13 to 15 kg for the cows included in example 2

[4] = Pharmacokinetics of cabergoline in plasma after IMM administration (Example 2.2); format: in vivo, cow; details: female, Prim'holstein and Brown Swiss, bovine, 5.4 mg/udder, n=5, plasma
Source text: (§1) 10 lactating cows (9 Prim'holstein and 1 Brown Swiss) were included in this study.

[5] = Pharmacokinetics of cabergoline in plasma after IM administration, 5.6 mg/cow (comparative study); format: in vivo; details: bovine, n=6, plasma
dairy cow [6] = test: Previous IM dose-effect study of cabergoline on milk production reduction (comparative); format: in vivo; details: extrapolation of the dose-effect relationship to an IM dose of 7.5 μg/kg
Source text: The obtained results are the following:

dairy cow [7] = test: Field-controlled study (n=106), IM route, decrease of milk production; format: in vivo
Description: Extrapolation of the dose-effect relationship, with an IM dose of 7.5 μg/kg gave a predicted effect on milk production reduction of −43%.

dairy cow [8] = test: Delta ITP at dry-off, IM study with the same total dose (comparative); format: in vivo; details: same total dose by IM route, n=130
[9] = Blood calcium concentration after IMM cabergoline at dry-off (Example 2.3); format: in vivo, cow
Source text: as §1
No feed restriction was put in place within the 3 weeks preceding the D0 dry-off and after. Animal had free access to water and hay throughout the study. Each cow was given 7 kg/day of an antibiotic free concentrate feed for lactating cow until D0 dry off. After dry-off each cow was given 7 kg/day of an antibiotic free concentrate for growing cattle.

- time of return of blood calcium to normal [3]: > 24 h
- AUC ([4]; read-out: AUCo-inf, mean (sd)): 4.75 ng·h/mL
- Cmax ([4]; read-out: Cmax, mean (sd)): 0.114 ng/mL
- MRT ([4]; read-out: MRT, mean (sd)): 36.3 h
- Tmax ([4]; read-out: Tmax, mean (sd)): 8.4 h
- AUC ([5]; read-out: AUCo-inf, mean (sd)): 2.49 ng·h/mL
- Cmax ([5]; read-out: Cmax, mean (sd)): 0.15 ng/mL
- MRT ([5]; read-out: MRT, mean (sd)): 22.7 h
- Tmax ([5]; read-out: Tmax, mean (sd)): 3 h
- decrease of blood calcium concentration in comparison with control cows, mean ([9]; IMM 1.34 mg/quarter in all 4 quarters, +6 hours time point only): -0.2 mmol/L
- blood calcium concentration change at other time points ([9]; IMM, +3 h, +12 h, +24 h and onward): No decrease
Compound: C=CCN1C[C@H](C(=O)N(CCCN(C)C)C(=O)NCC)C[C@@H]2c3cccc4[nH]cc(c34)C[C@H]21 [cabergoline, N-[3-(dimethylamino)propyl]-N-[(ethylamino)carbonyl]-6-(2-propenyl)-8g-ergoline-8-carboxamide]
- drop of milk production at the next morning milking (D5), mean [1]: 6 L
- ITP of treated cows versus control after dry-off (dairy cow [2]; IMM 1.34 mg/quarter in all 4 quarters, first 48 hours after treatment, FIG. 2): increased less than control
- Mean ΔITP at +24 h after treatment (dairy cow [2]; IMM study, 1.34 mg/quarter in all 4 quarters at D0 dry-off, n=5): 8.3 cm
- Mean ΔITP before/after milking, before treatment (dairy cow [2]; IMM study, cabergoline group n=5, baseline before treatment): 13.1 cm
- predicted effect on milk production reduction (dairy cow [6]): −43%
- decrease of milk production, treated against negative controlled cows (dairy cow [7]): around −40%
- Mean ΔITP at +24 h after treatment (dairy cow [8]): 9.2 cm
